Results reported in patent US20260027065A1, “LIVER/ADIPOSE TISSUE DUAL-TARGETING COMPOSITE NANO-DRUG CARRIER” (IUCF-HYU (INDUSTRY-UNIVERSITY COOPERATION FOUNDATION …, priority 2022, published 2026).

Tested on: animal models of obesity-induced type 2 diabetes
Test: Treatment effect (body weight, insulin resistance, biomarkers), type 2 diabetes model
Assay type: in vivo, C57BL/6J mice
Conditions: ZnPP 0.25 mg/kg i.p. once a week for 4 weeks together with HO-1 inducer-encapsulated ATS/PLGA NPs 1 mg/kg i.v.; FIG. 9
Experimental: C57BL/6J mice were purchased from Orient Bio Inc. and acclimated for one week. From week 3, a 60% kcal high fat diet (HFD, Central Lab Animal, Inc.) was mixed with normal diet and fed. From week 6, only HFD was fed, and HFD was additionally fed for 8 weeks. In week 20, it was confirmed that the body weight reached 45 to 55 g, and the fasting blood glucose level also exceeded 250 mg/dl.
After constructing the animal models of obesity-induced type 2 diabetes and the animal models of obesity-induced non-alcoholic steatohepatitis, ATS/PLGA NPs in which 1 mg/kg of heme oxygenase-1 inducer was encapsulated were injected intravenously once a week for 4 weeks. Here, the results of a control administered intravenously with ATS/PLGA NPs (vehicle) in which 1 mg/kg of heme oxygenase-1 inducer was not encapsulated once a week for 4 weeks and a control administered intraperitoneally with 0.25 mg/kg of heme oxygenase-1 inhibitor (ZnPP) once a week for 4 weeks while intravenous administration with ATS/PLGA NPs in which 1 mg/kg of heme oxygenase-1 inducer was encapsulated once a week for 4 weeks were compared. The body weight was measured for 7 weeks, and then the mice were dissected to obtain mRNA and proteins from major organs such as the liver and adipose tissue for biomarker analysis.

C=CC1=C(C)c2cc3[n-]c(cc4[n-]c(cc5nc(cc1n2)C(C)=C5C=C)c(C)c4CCC(=O)O)c(CCC(=O)O)c3C.[Zn+2] [ZnPP]
Effect on body weight with co-administered HO-1 inhibitor: no effect
